Patent US11780845B2 (Relay Therapeutics, Inc., priority 2019, dated 2023)

Assays:
FGFR2 = FGFR2 (Homo sapiens (Human), UniProt P21802); test: Biochemical FGFR2 Caliper assay
SNU-16 = test: Cell SNU-16 assay; format: cell-based; settings: Homo sapiens, SNU-16, SNU-16 cells

Chain of FGFR2 (P21802 22-821): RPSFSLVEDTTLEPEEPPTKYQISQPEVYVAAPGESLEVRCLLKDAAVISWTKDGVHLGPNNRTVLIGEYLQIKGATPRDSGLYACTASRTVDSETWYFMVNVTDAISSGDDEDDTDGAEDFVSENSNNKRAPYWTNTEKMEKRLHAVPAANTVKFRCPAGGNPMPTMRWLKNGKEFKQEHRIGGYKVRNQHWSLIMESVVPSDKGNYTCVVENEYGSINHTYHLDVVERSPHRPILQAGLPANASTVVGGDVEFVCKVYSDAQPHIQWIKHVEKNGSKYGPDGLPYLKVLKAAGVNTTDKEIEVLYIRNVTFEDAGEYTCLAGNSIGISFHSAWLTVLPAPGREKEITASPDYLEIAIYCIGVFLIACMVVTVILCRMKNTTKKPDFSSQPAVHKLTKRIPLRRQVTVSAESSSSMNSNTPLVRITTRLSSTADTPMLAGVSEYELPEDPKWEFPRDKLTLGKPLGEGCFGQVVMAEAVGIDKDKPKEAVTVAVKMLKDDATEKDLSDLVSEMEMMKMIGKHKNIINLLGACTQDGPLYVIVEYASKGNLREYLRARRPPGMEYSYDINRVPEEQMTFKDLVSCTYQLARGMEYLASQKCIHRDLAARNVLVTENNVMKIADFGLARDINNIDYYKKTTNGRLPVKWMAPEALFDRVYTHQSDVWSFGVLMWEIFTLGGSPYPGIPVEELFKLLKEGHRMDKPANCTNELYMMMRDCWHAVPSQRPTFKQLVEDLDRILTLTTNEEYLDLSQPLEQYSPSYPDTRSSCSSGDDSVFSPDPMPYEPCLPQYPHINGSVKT

| Compound | IC50 (FGFR2) | IC50 (SNU-16) |
| --- | --- | --- |
| C#Cc1ccc(-c2c(C3=CC[C@@H](C(=O)N4CCCC4)CC3)c3cncnc3n2C)c(C)n1 (single isomer, unassigned) [Example 1208] | 1000 to 100000 nM | 250 to 1000 nM |
| C#Cc1cc(C)c(-c2c(C3=CC[C@@H](C(=O)N4CCC[C@@H]4C)CC3)c3c(N)ncnc3n2C)cn1 (single isomer, unassigned) [Example 1210] | < 100 nM | ≤ 100 nM |
| C#Cc1ccc(-c2c(C3=CC[C@@H](C(=O)N4CCC[C@H]4C#C)CC3)c3c(N)ncnc3n2C)c(C)n1 (single isomer, unassigned) [Example 1230] | < 100 nM | ≤ 100 nM |
| C#Cc1ccc(-c2c(C3=CC[C@@H](C(=O)N4CCC[C@H]4C#N)CC3)c3c(N)ncnc3n2C)c(C)n1 (single isomer, unassigned) [Example 1235] | < 100 nM | ≤ 100 nM |
| C#Cc1cc(C)c(-c2c(C3=CC[C@H](C(=O)N4CCCC45COC5)CC3)c3c(N)ncnc3n2C)cn1 (single isomer, unassigned) [Example 1238] | 250 to 1000 nM | 100 to 250 nM |
| C#Cc1cc(C)c(-c2c(C3=CC[C@@H](C(=O)N4CCCC45COC5)CC3)c3c(N)ncnc3n2C)cn1 (single isomer, unassigned) [Example 1239] | < 100 nM | ≤ 100 nM |
| C#Cc1ncc(-c2c(C3=CC[C@@H](C(=O)N4CCCC4)CC3)c3c(N)ncnc3n2C)c(C)c1F (single isomer, unassigned) [Example 1329] | 250 to 1000 nM | 100 to 250 nM |
| C#Cc1ncc(-c2c(C3=CC[C@H](C(=O)N4CCCC4)CC3)c3c(N)ncnc3n2C)c(C)c1F (single isomer, unassigned) [Example 1330] | < 100 nM | ≤ 100 nM |

Other lines, results leading:

| IC50 (FGFR2) | IC50 (SNU-16) | Compound |
| --- | --- | --- |
| 250 to 1000 nM | 250 to 1000 nM | C#Cc1cc(C)c(-c2c(C3=CC[C@H](C(=O)N4CCC[C@H]4COC)CC3)c3c(N)ncnc3n2C)cn1 (single isomer, unassigned) [Example 1205] |
| 1000 to 100000 nM | 1000 to 100000 nM | C#Cc1ccc(-c2c(C3=CC[C@H](C(=O)N4CCCC4)CC3)c3cncnc3n2C)c(C)n1 (single isomer, unassigned) [Example 1207] |
| < 100 nM | 100 to 250 nM | C#Cc1ccc(-c2c(C3=CC[C@@H](C(=O)N4CCC[C@H]4COC)CC3)c3c(N)ncnc3n2C)c(C)n1 (single isomer, unassigned) [Example 1211] |
| < 100 nM | 100 to 250 nM | C#Cc1cc(C)c(-c2c(C3=CC[C@@H](C(=O)N4CCC[C@H]4COC)CC3)c3c(N)ncnc3n2C)cn1 (single isomer, unassigned) [Example 1212] |
| < 100 nM | ≤ 100 nM | C#Cc1cc(C)c(-c2c(C3=CC[C@@H](C(=O)N4CCC[C@H]4C)CC3)c3c(N)ncnc3n2C)cn1 (single isomer, unassigned) [Example 1219] |
| < 100 nM | ≤ 100 nM | C#Cc1ccc(-c2c(C3=CC[C@@H](C(=O)N4CCC[C@@H]4C#C)CC3)c3c(N)ncnc3n2C)c(C)n1 (single isomer, unassigned) [Example 1229] |
| < 100 nM | ≤ 100 nM | C#Cc1cc(C)c(-c2c(C3=CC[C@@H](C(=O)N4CCC[C@H]4CO)CC3)c3c(N)ncnc3n2C)cn1 (single isomer, unassigned) [Example 1231] |
| 100 to 250 nM | 100 to 250 nM | C#Cc1cc(C)c(-c2c(C3=CC[C@H](C(=O)N4CCCC4=O)CC3)c3c(N)ncnc3n2C)cn1 (single isomer, unassigned) [Example 1240] |
| < 100 nM | ≤ 100 nM | C#Cc1cc(C)c(-c2c(C3=CC[C@@H](C(=O)N4CCCC4=O)CC3)c3c(N)ncnc3n2C)cn1 (single isomer, unassigned) [Example 1241] |
| < 100 nM | ≤ 100 nM | C#Cc1ncc(-c2c(-c3ccc(C(=O)N4CCC[C@H]4C#C)cc3)c3c(N)ncnc3n2C)c(C)c1F (single isomer, unassigned) [Example 1331] |
| < 100 nM | ≤ 100 nM | C#Cc1ncc(-c2c(-c3ccc(C(=O)N4CCC[C@@H]4C#C)cc3)c3c(N)ncnc3n2C)c(C)c1F (single isomer, unassigned) [Example 1332] |
